Calls of active or inactive are those of the source. The rule behind the calls is not given here.
Columns and labels:
Homo sapiens = species: Homo sapiens; assay: Selectivity ratio of Ki for human adenosine A1 receptor to Ki for human adenosine A2A receptor
Adenosine receptor A2a = Adenosine receptor A2a (Homo sapiens, UniProt P29274); assay: biochemical
Description: Displacement of [3H]ZM241385 from human adenosine A2A receptor expressed in HEK293 cells after 60 mins by rapid filtration assay

Adenosine receptor A1 = target: T1, Adenosine receptor A1 (Homo sapiens, UniProt P30542); assay: biochemical
T1 sequence (P30542 whole entry): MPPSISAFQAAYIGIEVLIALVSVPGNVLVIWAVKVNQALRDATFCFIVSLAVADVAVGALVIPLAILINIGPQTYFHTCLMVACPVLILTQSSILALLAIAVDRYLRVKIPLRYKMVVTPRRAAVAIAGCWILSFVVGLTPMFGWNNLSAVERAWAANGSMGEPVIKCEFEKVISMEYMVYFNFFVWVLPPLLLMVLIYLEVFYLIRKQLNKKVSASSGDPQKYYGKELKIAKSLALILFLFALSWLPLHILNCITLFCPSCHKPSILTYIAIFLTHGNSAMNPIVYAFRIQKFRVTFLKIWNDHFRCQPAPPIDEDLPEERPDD
Description: Displacement of [3H]DPCPX from human adenosine A1 receptor expressed in HEK293 cells after 60 mins by rapid filtration assay

Mus musculus [1] = assay: Inhibition of haloperidol-induced catalepsy in Swiss albino mouse at 5 mg/kg, ip administered 30 mins prior to haloperidol challenge measured after 15 to 120 mins; assay type: functional, organism-based; design: dose 5 mg/kg
Mus musculus [2] = assay: Inhibition of haloperidol-induced catalepsy in Swiss albino mouse at 10 mg/kg, ip administered 30 mins prior to haloperidol challenge measured after 15 to 120 mins; assay type: functional, organism-based; design: dose 10 mg/kg
Mus musculus [3] = assay: Inhibition of haloperidol-induced catalepsy in Swiss albino mouse at 20 mg/kg, ip administered 30 mins prior to haloperidol challenge measured after 15 to 120 mins; assay type: functional, organism-based; design: dose 20 mg/kg
Mus musculus [4] = assay: Inhibition of haloperidol-induced akinesia in Swiss albino mouse at 5 mg/kg, ip administered 30 mins prior to haloperidol challenge measured after 15 to 120 mins; assay type: functional, organism-based; design: dose 5 mg/kg
Mus musculus [5] = assay: Inhibition of haloperidol-induced akinesia in Swiss albino mouse at 10 mg/kg, ip administered 30 mins prior to haloperidol challenge measured after 15 to 120 mins; assay type: functional, organism-based; design: dose 10 mg/kg
Mus musculus [6] = assay: Inhibition of haloperidol-induced akinesia in Swiss albino mouse at 20 mg/kg, ip administered 30 mins prior to haloperidol challenge measured after 15 to 120 mins; assay type: functional, organism-based; design: dose 20 mg/kg

Chain of Adenosine receptor A2a (P29274 whole entry): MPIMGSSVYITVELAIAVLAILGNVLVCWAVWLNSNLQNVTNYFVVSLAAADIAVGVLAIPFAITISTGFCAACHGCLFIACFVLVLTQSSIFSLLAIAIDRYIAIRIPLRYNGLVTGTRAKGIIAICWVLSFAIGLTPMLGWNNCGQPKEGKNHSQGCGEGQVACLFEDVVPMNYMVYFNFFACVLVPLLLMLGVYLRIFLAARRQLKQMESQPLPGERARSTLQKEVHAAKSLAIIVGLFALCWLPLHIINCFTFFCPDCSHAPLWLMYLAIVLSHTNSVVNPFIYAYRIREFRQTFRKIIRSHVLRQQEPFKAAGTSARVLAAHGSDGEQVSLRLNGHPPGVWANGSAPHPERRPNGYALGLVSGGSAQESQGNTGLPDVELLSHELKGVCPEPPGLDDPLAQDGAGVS

SMILES | Ratio Ki (Homo sapiens) | Ki (Adenosine receptor A2a) | Ki (Adenosine receptor A1) | inhibition (Mus musculus [1]) | inhibition (Mus musculus [2]) | inhibition (Mus musculus [3]) | inhibition (Mus musculus [4]) | inhibition (Mus musculus [5]) | inhibition (Mus musculus [6])
Fc1ccc(-n2c(=S)sc3c2ncn2nc(-c4ccco4)nc32)cc1 | 1.59 | 2.02 nM | 3.21 nM |  |  |  |  |  | 
S=c1sc2c(ncn3nc(-c4ccco4)nc23)n1-c1ccccc1 | 46.6 | 1.1 nM | 48 nM |  |  |  |  |  | 
C=CCn1c(=S)sc2c1ncn1nc(-c3ccco3)nc21 | 1250 | 0.016 nM | 19 nM | Active | Active | Active | Active | Active | Active
S=c1sc2c(ncn3nc(-c4ccco4)nc23)n1-c1ccccc1I | 0.571 | 0.7 nM | 0.4 nM |  |  |  |  |  | 
S=c1sc2c(ncn3nc(-c4ccco4)nc23)n1-c1ccc(I)cc1 | 10.8 | 0.57 nM | 6.13 nM |  |  |  |  |  | 
CCn1c(=S)sc2c1ncn1nc(-c3ccco3)nc21 | 0.028 | 3.56 nM | 0.096 nM |  |  |  |  |  | 

Continued by falling Ki (Adenosine receptor A2a), values first:

Ratio Ki (Homo sapiens) | Ki (Adenosine receptor A2a) | Ki (Adenosine receptor A1) | SMILES | inhibition (Mus musculus [1]) | inhibition (Mus musculus [2]) | inhibition (Mus musculus [3]) | inhibition (Mus musculus [4]) | inhibition (Mus musculus [5]) | inhibition (Mus musculus [6])
636 | 0.38 nM | 228 nM | CCCn1c(=S)sc2c1ncn1nc(-c3ccco3)nc21 | Active | Active | Active | Active | Active | Active
0.197 | 0.152 nM | 0.03 nM | S=c1sc2c(ncn3nc(-c4ccco4)nc23)n1-c1ccc(Cl)cc1 |  |  |  |  |  | 
1290 | 0.12 nM | 148 nM | CCCCn1c(=S)sc2c1ncn1nc(-c3ccco3)nc21 | Active | Active | Active | Active | Active | Active
5 | 0.038 nM | 0.19 nM | S=c1sc2c(ncn3nc(-c4ccco4)nc23)n1-c1cccc(Cl)c1 |  |  |  |  |  | 
320 | 0.0082 nM | 2.62 nM | S=c1sc2c(ncn3nc(-c4ccco4)nc23)n1-c1cccc(I)c1 |  |  |  |  |  | 
